Test: permeability of Bandera sandstone (clay stabilization)
Details: API standard brine and tap water, 150° F. (66° C.)
Protocol: FIG. 1 is a graph of the effect of TMAC and Tap Water on the permeability of Bandera Sandstone at 150° F. (66° C.);
FIG. 2 is a graph of the effect of A4819 and Tap Water on the permeability of Bandera Sandstone at 150° F. (66° C.); and
FIG. 3 is a graph of the effect of A4840 and Tap Water on the permeability of Bandera Sandstone at 150° F. (66° C.).
The products TMAC (tetramethylammonium chloride), A4819 and A4840 were tested on an API standard brine and tap water on Bandera sandstone for permeability.

SMILES: C[N+](C)(C)C.[Cl-] [TMAC, tetramethylammonium chloride]
- maintaining permeability (measure that the clay is stable): performed well
